Measured values taken from PMC5317395, “Structure and inhibitor specificity of the PCTAIRE-family kinase CDK16” (Biochemical Journal, 2017).

Each compound was assayed against T1, CDK16 (Homo sapiens, UniProt Q00536) (assay: co-crystal structure ([…] Å); also DSF ΔTm […] °C, kinase assay IC50 (E. coli CDK16 + cyclin Y/[…]-3-3), CETSA). Details: not given.
Type: biochemical
Set-up: PCTAIRE-tide substrate

T1 sequence (Q00536 whole entry): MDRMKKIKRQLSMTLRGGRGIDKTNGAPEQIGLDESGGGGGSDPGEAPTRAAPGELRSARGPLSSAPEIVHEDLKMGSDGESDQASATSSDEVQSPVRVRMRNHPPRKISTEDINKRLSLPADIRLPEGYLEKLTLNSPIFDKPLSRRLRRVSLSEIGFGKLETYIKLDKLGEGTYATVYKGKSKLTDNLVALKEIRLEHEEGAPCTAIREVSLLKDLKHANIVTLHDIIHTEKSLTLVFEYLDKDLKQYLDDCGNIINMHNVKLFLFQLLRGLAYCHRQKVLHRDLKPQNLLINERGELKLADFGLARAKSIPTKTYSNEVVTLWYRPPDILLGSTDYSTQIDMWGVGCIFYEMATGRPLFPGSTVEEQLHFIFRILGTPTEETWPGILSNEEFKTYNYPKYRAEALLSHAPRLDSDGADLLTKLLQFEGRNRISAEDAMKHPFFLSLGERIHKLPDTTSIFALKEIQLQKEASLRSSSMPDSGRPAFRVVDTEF
T1 sequence (Q8ND76 2-341 partner): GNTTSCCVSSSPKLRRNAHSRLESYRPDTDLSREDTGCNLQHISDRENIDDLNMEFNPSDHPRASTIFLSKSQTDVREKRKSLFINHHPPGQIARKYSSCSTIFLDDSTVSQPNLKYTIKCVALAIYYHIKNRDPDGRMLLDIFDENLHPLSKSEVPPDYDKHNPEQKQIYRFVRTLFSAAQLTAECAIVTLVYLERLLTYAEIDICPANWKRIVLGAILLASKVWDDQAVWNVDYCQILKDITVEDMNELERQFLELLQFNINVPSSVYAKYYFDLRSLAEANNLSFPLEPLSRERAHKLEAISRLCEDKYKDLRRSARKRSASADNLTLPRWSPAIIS

Structure (SMILES)	IC50 [nM]
CNC(=O)c1cc(Oc2ccc(NC(=O)Nc3cc(C(C)(C)C)nn3-c3ccc4ncccc4c3)c(F)c2)ccn1 [rebastinib]	32

What follows are compounds tested against T2, CDK16 (Homo sapiens, UniProt Q00536, S319D) (assay: biochemical). Details: 12.5 µM; binder; Tm shift (°C).
T2 construct: kinase domain, CDK16 163–478, C-terminal His tag
T2 sequence (Q00536 163-478 S319D): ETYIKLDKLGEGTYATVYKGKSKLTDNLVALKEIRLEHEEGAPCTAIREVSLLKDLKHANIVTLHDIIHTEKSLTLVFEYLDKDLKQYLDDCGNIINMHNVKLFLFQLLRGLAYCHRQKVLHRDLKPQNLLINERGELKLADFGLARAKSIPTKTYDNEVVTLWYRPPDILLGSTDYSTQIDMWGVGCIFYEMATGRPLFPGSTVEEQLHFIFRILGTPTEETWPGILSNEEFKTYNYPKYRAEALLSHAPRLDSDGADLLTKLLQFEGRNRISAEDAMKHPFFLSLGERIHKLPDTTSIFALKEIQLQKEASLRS
Set-up: Differential scanning fluorimetry (SYPRO Orange), 2 uM CDK16, Tm shift versus 2.5% DMSO control
Procedure: Thermal melting experiments were performed using a Real-Time PCR machine Mx3005p (Stratagene) as described previously. Briefly, 2 μM CDK16 was screened against a collection of kinase inhibitors in a 96-well plate format. […] Data were analysed with the MxPro software. […] To identify protein constructs suitable for structural studies, human CDK16 was recombinantly expressed in E. coli with a variety of N- and C-terminal truncations. […] To identify potential inhibitors of CDK16, we screened the recombinant protein kinase domain against many inhibitor libraries using differential scanning fluorimetry (DSF). Ligands in this assay increase a protein's melting temperature (Tm shift, ΔTm) by an amount proportional to their binding affinity. […] Rebastinib is a multitargeted type II kinase inhibitor that was developed to inhibit BCR-ABL as well as the drug-resistant gatekeeper mutant ABL^T315I (Figure 1). It has entered phase I clinical trials for chronic myeloid leukaemia.

Structure (SMILES)	Tm shift (°C)
CN1CCC(C(=O)Nc2n[nH]c3nc(-c4ccc(O)cc4)c(Br)cc23)CC1 [SB-732881]	5.2

Same assay, conditions: read-out: Tm shift (°C)

Structure (SMILES)	ΔTm at 12.5 µM [°C]
O=Nc1c(-c2c(O)[nH]c3ccc(I)cc23)[nH]c2ccccc12 [5-Iodo-indirubin-3′-monoxime]	6.1
O=C1Nc2ccccc2/C1=C\c1cnc[nH]1 [(Z,E)-3-(imidazol-4-ylmethylene)indolin-2-one]	6.7
O=C(Nc1c[nH]nc1-c1nc2ccc(CN3CCOCC3)cc2[nH]1)NC1CC1 [AT9283]	5.7
CC(C)Oc1cc(Nc2nc(N[C@@H](C)c3ccc(F)cn3)ncc2Cl)n[nH]1 [AZ23]	5.8
N#CCCc1ccc2c(c1)-c1[nH]c3ccc([N+](=O)[O-])cc3c1CC(=O)N2 [Alsterpaullone, 2-Cyanoethyl]	7.9
Nc1nc(Nc2ccc(S(N)(=O)=O)cc2)nn1C(=S)Nc1c(F)cccc1F [Cdk1/2 Inhibitor III]	9.6
Cc1nc(N)sc1-c1ccnc(Nc2cccc([N+](=O)[O-])c2)n1 [Cdk2/9 Inhibitor]	7.2
O=C(O[C@H]1CN[C@H](C#Cc2cc3ncnc(Nc4ccc(Cc5ccccc5)cc4)c3s2)C1)N1CCOCC1 [GSK238583A]	5.8
NS(=O)(=O)c1ccc(NN=C2C(=O)Nc3ccc(C(=O)NCc4ccncc4)cc32)cc1 [GW300657X]	8.8
NS(=O)(=O)c1ccc(N/N=C2\C(=O)Nc3ccc(C(=O)NCCc4c[nH]cn4)cc32)cc1 [GW300660X]	6.8
CC(C)(CO)CNC(=O)c1ccc2c(c1)/C(=N/Nc1ccc(S(N)(=O)=O)cc1)C(=O)N2 [GW301784X]	6
CC(C)COC(=O)c1ccc2c(c1)/C(=C/Nc1ccc(S(N)(=O)=O)cc1)C(=O)N2 [GW416981X]	8.7
CCN(CC)Cc1ccc(Nc2nccc(-c3cnn4ncccc34)n2)cc1 [GW780056X]	4.8
O=Nc1c(-c2c(O)[nH]c3ccc(S(=O)(=O)O)cc23)[nH]c2ccccc12 [Indirubin-3′-monoxime-5-sulphonic acid]	6.7
CNC(=O)c1nn(C)c2c1C(C)(C)Cc1cnc(Nc3ccc(N4CCN(C)CC4)cc3)nc1-2 [Milciclib]	6.2
Cc1ccc([N+](=O)[O-])cc1S(=O)(=O)N(C)/N=C/c1cnc2ccc(Br)cn12 [PIK-75]	4.7
CNC(=O)c1cc(Oc2ccc(NC(=O)Nc3ccc(Cl)c(C(F)(F)F)c3)c(F)c2)ccn1 [Regorafenib]	4.1
CN1CCC(C(=O)Nc2n[nH]c3nc(-c4ccc(O)cc4)c(Br)cc23)CC1 [SB-732881-H]	5.5
CCN1CCC(CC(=O)Nc2n[nH]c3nc(-c4cccs4)c(Br)cc23)CC1 [SB-739245-AC]	5.4
COc1ccc2c(c1)/C(=C/c1cnc[nH]1)C(=O)N2 [SU9516]	6
CC(C)(C)c1nc(-c2cccc(NS(=O)(=O)c3c(F)cccc3F)c2F)c(-c2ccnc(N)n2)s1 [dabrafenib]	10.4
O=C1Nc2ccccc2/C1=C1/Nc2ccccc2/C1=N\OCCC(O)CO (stereo not drawn) [indirubin E804]	7.6
CNC(=O)c1cc(Oc2ccc(NC(=O)Nc3cc(C(C)(C)C)nn3-c3ccc4ncccc4c3)c(F)c2)ccn1 [rebastinib]	12.6

These compounds were tested against T1, CDK16 (assay: […] kinase assay with PCTAIRE-tide; also DSF ΔTm […] °C). Details: not given.
Type: biochemical
Set-up: E. coli-purified human CDK16 (kinase assay); 163–478 S319D in DSF; with cyclin Y (with endogenous 14-3-3)

Structure (SMILES)	IC50 [nM]
CC(C)(C)c1nc(-c2cccc(NS(=O)(=O)c3c(F)cccc3F)c2F)c(-c2ccnc(N)n2)s1 [dabrafenib]	35

These compounds were tested against T1, CDK16 (assay: co-crystal structure ([…] Å); also DSF ΔTm […] °C, kinase assay IC50 (E. coli CDK16 + cyclin Y/[…]-3-3)). Details: not given.
Type: biochemical
Set-up: PCTAIRE-tide substrate

Structure (SMILES)	IC50 [nM]
O=C1Nc2ccccc2/C1=C1/Nc2ccccc2/C1=N\OCCC(O)CO (stereo not drawn) [indirubin E804]	83
